Results reported in patent US11702422B2, “Imidazopyridazines as modulators of IL-17” (Janssen Pharmaceutica NV, priority 2020, dated 2023).

How the values were obtained:
[1] = biological target: IL-17A(FLAG-Tagged): IL-17RA(His-Tagged) (Homo sapiens, UniProt Q16552, K93Q); experiment: IL-17A(FLAG-Tagged): IL-17RA(His-Tagged) Binding Disruption Eu-HTRF Assay; conditions: IL-17A/IL-17RA binding disruption, simple average if tested more than once
Procedure, shortened: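 IC50 comes from a one-site competition fit of the HTRF 665/620 nm ratio. Compound dilutions (2-fold, 22 points) were held 1 h rt with FLAG-tagged IL-17A dimer, then His-tagged IL-17RA plus Eu-cryptate anti-FLAG and D2 anti-His antibodies were added for 2 h rt.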

[2] = system: IL-17A-induced G-CSF production in human normal keratinocyte (NHK); experiment: NHK Assay: IL-17A-induced G-CSF production in human normal keratinocytes; assay type: cell-based; conditions: 24 h, adult normal human keratinocytes, IL-17A 5 ng/mL, simple average if tested more than once
Procedure, shortened: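 HTRF read-out of supernatant G-CSF, quantified from a standard curve, gave IC50 values. Adult keratinocytes, 3000-4000 cells/well, received human IL-17A (5 ng/mL final) pre-mixed 1 h at rt with compound, in 5% FBS and 0.2% DMSO, 24 h at 37° C.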

Sequence of UniProt Q16552 (Q16552 with tags, fused parts or gaps K93Q): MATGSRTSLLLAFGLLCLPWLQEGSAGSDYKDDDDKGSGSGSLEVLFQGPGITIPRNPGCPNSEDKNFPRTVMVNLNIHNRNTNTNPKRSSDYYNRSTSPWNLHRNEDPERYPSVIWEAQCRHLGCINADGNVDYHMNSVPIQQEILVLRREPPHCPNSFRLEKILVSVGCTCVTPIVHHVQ

| IC50 [1] | SMILES | IC50 ([2]; Homo sapiens, Keratinocyte) | IC50 [2] |
| --- | --- | --- | --- |
| 51 nM | O=C(CCC(F)(F)F)N[C@@H](c1cnn2cc([C@@H](NC(=O)c3nonc3OCC(F)F)C3CCC(F)(F)CC3)nc2c1)C1CC1 [Example 383, N—((S)-(7-((R)-Cyclopropyl(4,4,4-trifluorobutanamido)methyl)imidazo[1,2-b]pyridazin-2-yl)(4,4-difluorocyclohexyl)methyl)-4-(2,2-difluoroethoxy)-1,2,5-oxadiazole-3-carboxamide] | 19 nM |  |
| 63 nM | O=C(CCC(F)(F)F)N[C@@H](c1cnn2cc([C@@H](NC(=O)c3cnnn3CC3CC3)C3CCC(F)(F)CC3)nc2c1)C1CC1 [Example 48, N—((S)-(7-((R)-Cyclopropyl(4,4,4-trifluorobutanamido)methyl)imidazo[1,2-b]pyridazin-2-yl)(4,4-difluorocyclohexyl)methyl)-1-(cyclopropylmethyl)-1H-1,2,3-triazole-5-carboxamide] | 160 nM |  |
| 61 nM | O=C(CC1CC(F)(F)C1)N[C@@H](c1cnn2cc([C@@H](NC(=O)c3nonc3C(F)F)C3CCC(F)(F)CC3)nc2c1)C1CC1 [Example 413, N—((S)-(7-((R)-Cyclopropyl(2-(3,3-difluorocyclobutyl)acetamido)methyl)imidazo[1,2-b]pyridazin-2-yl)(4,4-difluorocyclohexyl)methyl)-4-(difluoromethyl)-1,2,5-oxadiazole-3-carboxamide] | 170 nM |  |
| 1200 nM | O=C(CCC(F)(F)F)N[C@@H](c1cnn2cc([C@@H](NC(=O)c3cccc(C(F)F)n3)C3CCC(F)(F)CC3)nc2c1)C1CC1 [Example 229, N—((S)-(7-((R)-Cyclopropyl(4,4,4-trifluorobutanamido)methyl)imidazo[1,2-b]pyridazin-2-yl)(4,4-difluorocyclohexyl)methyl)-6-(difluoromethyl)picolinamide] | > 20000 nM |  |
| 310 nM | CC(C)n1nccc1C(=O)N[C@H](c1cn2ncc(C(CC#N)NC(=O)CC3CC(F)(F)C3)cc2n1)C1CCC(F)(F)CC1 (single isomer, unassigned) [Example 399, N—((S)-(7-((S*)-2-Cyano-1-(2-(3,3-difluorocyclobutyl)acetamido)ethyl)imidazo[1,2-b]pyridazin-2-yl)(4,4-difluorocyclohexyl)methyl)-1-isopropyl-1H-pyrazole-5-carboxamide] |  | 94 nM |
| 62 nM | CCOc1conc1C(=O)N[C@H](c1cn2ncc([C@H](NC(=O)CCC(F)(F)F)C3CC3)cc2n1)C1CCC(F)(F)CC1 [Example 373, N—((S)-(7-((R)-Cyclopropyl(4,4,4-trifluorobutanamido)methyl)imidazo[1,2-b]pyridazin-2-yl)(4,4-difluorocyclohexyl)methyl)-4-ethoxyisoxazole-3-carboxamide] | 240 nM |  |
| 1900 nM | CC(C)n1nccc1C(=O)N[C@H](c1cn2ncc(C(NC(=O)CCC(F)(F)F)C3CC3)cc2n1)C1CCC(F)(F)CC1 (single isomer, unassigned) [Example 15, N—((S)-(7-((S*)-Cyclopropyl(4,4,4-trifluorobutanamido)methyl)imidazo[1,2-b]pyridazin-2-yl)(4,4-difluorocyclohexyl)methyl)-1-isopropyl-1H-pyrazole-5-carboxamide] |  | 4800 nM |
| 160 nM | [2H]C([2H])([2H])C([2H])([2H])n1nccc1C(=O)N[C@H](c1cn2ncc([C@H](NC(=O)CCC(F)F)C3CC3)cc2n1)C1CCC(F)(F)CC1 [Example 282, N—((S)-(7-((R)-Cyclopropyl(4,4-difluorobutanamido)methyl)imidazo[1,2-b]pyridazin-2-yl)(4,4-difluorocyclohexyl)methyl)-1-(ethyl-d5)-1H-pyrazole-5-carboxamide] | 420 nM |  |
| 240 nM | O=C(CC1CC(F)(F)C1)N[C@@H](c1cnn2cc([C@@H](NC(=O)c3nonc3CN3CC(F)C3)C3CCC(F)(F)CC3)nc2c1)C1CC1 [Example 407, N—((S)-(7-((R)-Cyclopropyl(2-(3,3-difluorocyclobutyl)acetamido)methyl)imidazo[1,2-b]pyridazin-2-yl)(4,4-difluorocyclohexyl)methyl)-4-((3-fluoroazetidin-1-yl)methyl)-1,2,5-oxadiazole-3-carboxamide] | 97 nM |  |
| 740 nM | O=C(CCC(F)(F)F)N[C@@H](c1cnn2cc([C@@H](NC(=O)C3CC34CC4)C3CCC(F)(F)CC3)nc2c1)C1CC1 (stereo partly drawn) [Example 44, N—((S)-(7-((R)-Cyclopropyl(4,4,4-trifluorobutanamido)methyl)imidazo[1,2-b]pyridazin-2-yl)(4,4-difluorocyclohexyl)methyl)spiro[2.2]pentane-1-carboxamide] | 1400 nM |  |
| 440 nM | O=C(CCC(F)(F)F)N[C@@H](c1cnn2cc([C@@H](NC(=O)c3cc(C(F)(F)F)ncn3)C3CCC(F)(F)CC3)nc2c1)C1CC1 [Example 202, N—((S)-(7-((R)-Cyclopropyl(4,4,4-trifluorobutanamido)methyl)imidazo[1,2-b]pyridazin-2-yl)(4,4-difluorocyclohexyl)methyl)-6-(trifluoromethyl)pyrimidine-4-carboxamide] | 2300 nM |  |
| 85 nM | O=C(CCC(F)(F)F)NC(c1cnn2cc([C@@H](NC(=O)c3ccccc3)C3CCC(F)(F)CC3)nc2c1)C1CC1 (single isomer, unassigned) [Example 12, N—((S)-(7-((R*)-Cyclopropyl(4,4,4-trifluorobutanamido)methyl)imidazo[1,2-b]pyridazin-2-yl)(4,4-difluorocyclohexyl)methyl)benzamide] |  | 180 nM |
| 84 nM | Cc1nocc1C(=O)N[C@H](c1cn2ncc([C@H](NC(=O)CCC(F)(F)F)C3CC3)cc2n1)C1CCC(F)(F)CC1 [Example 79, N—((S)-(7-((R)-Cyclopropyl(4,4,4-trifluorobutanamido)methyl)imidazo[1,2-b]pyridazin-2-yl)(4,4-difluorocyclohexyl)methyl)-3-methylisoxazole-4-carboxamide] | 150 nM |  |
| 390 nM | CC(C)c1cccc(C(=O)N[C@H](c2cn3ncc([C@H](NC(=O)CCC(F)(F)F)C4CC4)cc3n2)C2CCC(F)(F)CC2)n1 [Example 205, N—((S)-(7-((R)-Cyclopropyl(4,4,4-trifluorobutanamido)methyl)imidazo[1,2-b]pyridazin-2-yl)(4,4-difluorocyclohexyl)methyl)-6-isopropylpicolinamide] | 3700 nM |  |
| 900 nM | CC(C)Oc1cccc(C(=O)N[C@H](c2cn3ncc([C@H](NC(=O)CCC(F)(F)F)C4CC4)cc3n2)C2CCC(F)(F)CC2)n1 [Example 227, N—((S)-(7-((R)-Cyclopropyl(4,4,4-trifluorobutanamido)methyl)imidazo[1,2-b]pyridazin-2-yl)(4,4-difluorocyclohexyl)methyl)-6-isopropoxypicolinamide] | 20000 nM |  |
| 320 nM | O=C(CCC(F)(F)F)N[C@@H](c1cnn2cc([C@@H](NC(=O)c3ccccc3CC(F)(F)F)C3CCC(F)(F)CC3)nc2c1)C1CC1 [Example 231, N—((S)-(7-((R)-Cyclopropyl(4,4,4-trifluorobutanamido)methyl)imidazo[1,2-b]pyridazin-2-yl)(4,4-difluorocyclohexyl)methyl)-2-(2,2,2-trifluoroethyl)benzamide] | > 20000 nM |  |
| 150 nM | CCc1ccnc(C(=O)N[C@H](c2cn3ncc([C@H](NC(=O)CCC(F)(F)F)C4CC4)cc3n2)C2CCC(F)(F)CC2)c1 [Example 453, N—((S)-(7-((R)-Cyclopropyl(4,4,4-trifluorobutanamido)methyl)imidazo[1,2-b]pyridazin-2-yl)(4,4-difluorocyclohexyl)methyl)-4-ethylpicolinamide] | 3900 nM |  |
| 96 nM | CC(C)n1nccc1C(=O)N[C@H](c1cn2ncc([C@H](NC(=O)CC3CC(F)(F)C3)C3CC3)cc2n1)C1CCC(F)(F)CC1 [Example 119, N—((S)-(7-((R)-Cyclopropyl(2-(3,3-difluorocyclobutyl)acetamido)methyl)imidazo[1,2-b]pyridazin-2-yl)(4,4-difluorocyclohexyl)methyl)-1-isopropyl-1H-pyrazole-5-carboxamide] | 36 nM |  |
| 17 nM | CC(C)(OC[C@H](NC(=O)c1nonc1C1CC1)c1cn2ncc([C@H](NC(=O)CC3CC(F)(F)C3)C3CC3)cc2n1)C(F)(F)F [Example 321, 4-Cyclopropyl-N—((R)-1-(7-((R)-cyclopropyl(2-(3,3-difluorocyclobutyl)acetamido)methyl)imidazo[1,2-b]pyridazin-2-yl)-2-((1,1,1-trifluoro-2-methylpropan-2-yl)oxy)ethyl)-1,2,5-oxadiazole-3-carboxamide] | 32 nM |  |
| 35 nM | O=C(CC1CC(F)(F)C1)N[C@@H](c1cnn2cc([C@@H](NC(=O)c3nonc3COC(F)F)C3CCC(F)(F)CC3)nc2c1)C1CC1 [Example 385, N—((S)-(7-((R)-Cyclopropyl(2-(3,3-difluorocyclobutyl)acetamido)methyl)imidazo[1,2-b]pyridazin-2-yl)(4,4-difluorocyclohexyl)methyl)-4-((difluoromethoxy)methyl)-1,2,5-oxadiazole-3-carboxamide] | 32 nM |  |
| 150 nM | O=C(CC12CC(F)(C1)C2)N[C@@H](c1cnn2cc([C@@H](NC(=O)c3conc3OCC(F)F)C3CCC(F)(F)CC3)nc2c1)C1CC1 [Example 295, N—((S)-(7-((R)-Cyclopropyl(2-(3-fluorobicyclo[1.1.1]pentan-1-yl)acetamido)methyl)imidazo[1,2-b]pyridazin-2-yl)(4,4-difluorocyclohexyl)methyl)-3-(2,2-difluoroethoxy)isoxazole-4-carboxamide] | 710 nM |  |
